Laboratory results taken from ChEMBL document CHEMBL3044987, “7-chloro-3-(substituted benzylidene/phenyl ethylidene amino)-2-phenylquinazolin-4(3H)-ones: synthesis, antimicrobial and antitubercular evaluation” (2012).

Key:
Format in all cases: functional
[1] = test system: Pseudomonas aeruginosa; assay: Antibacterial activity against Pseudomonas aeruginosa ATCC 27853 after 24 hr by disk diffusion method
[2] = test system: Staphylococcus aureus; assay: Antibacterial activity against Staphylococcus aureus ATCC 6538 after 24 hr by disk diffusion method
[3] = test system: Escherichia coli; assay: Antibacterial activity against Escherichia coli ATCC 25922 after 24 hr by disk diffusion method

Row | SMILES | inhibition zone (IZ) [1] | inhibition zone (IZ) [2] | inhibition zone (IZ) [3]
1 | C/C(=N\n1c(-c2ccccc2)nc2cc(Cl)ccc2c1=O)c1ccc(O)cc1 | 4 mm | 15 mm | 22 mm
2 | O=C(O)c1cn(C2CC2)c2cc(N3CCNCC3)c(F)cc2c1=O [CIPROFLOXACIN] | 18 mm | 17 mm | 
3 | COc1cc(/C=N/n2c(-c3ccccc3)nc3cc(Cl)ccc3c2=O)ccc1O | 5 mm | 15 mm | 21 mm
4 | C/C(=N\n1c(-c2ccccc2)nc2cc(Cl)ccc2c1=O)c1ccc(Cl)cc1 | 4 mm | 15 mm | 22 mm
